According to ChEMBL document CHEMBL2057064, “Activation of human RNase L by 2'- and 5'-O-methylphosphonate-modified oligoadenylates” (Bioorg Med Chem Lett, 2012):
Activity calls are given as the source filed them. The rule behind the calls is not given here.

biological target: T1, 2-5A-dependent ribonuclease (Homo sapiens) (UniProt Q05823); test: Antagonist activity at human RNase L expressed in Escherichia coli BL21 (DE3) cells assessed as RNA cleavage using Cy5-C11-rUU-C7-BHQ2 as substrate by FRET assay in presence of natural activator pAAAA; assay type: functional
T1 sequence (whole entry): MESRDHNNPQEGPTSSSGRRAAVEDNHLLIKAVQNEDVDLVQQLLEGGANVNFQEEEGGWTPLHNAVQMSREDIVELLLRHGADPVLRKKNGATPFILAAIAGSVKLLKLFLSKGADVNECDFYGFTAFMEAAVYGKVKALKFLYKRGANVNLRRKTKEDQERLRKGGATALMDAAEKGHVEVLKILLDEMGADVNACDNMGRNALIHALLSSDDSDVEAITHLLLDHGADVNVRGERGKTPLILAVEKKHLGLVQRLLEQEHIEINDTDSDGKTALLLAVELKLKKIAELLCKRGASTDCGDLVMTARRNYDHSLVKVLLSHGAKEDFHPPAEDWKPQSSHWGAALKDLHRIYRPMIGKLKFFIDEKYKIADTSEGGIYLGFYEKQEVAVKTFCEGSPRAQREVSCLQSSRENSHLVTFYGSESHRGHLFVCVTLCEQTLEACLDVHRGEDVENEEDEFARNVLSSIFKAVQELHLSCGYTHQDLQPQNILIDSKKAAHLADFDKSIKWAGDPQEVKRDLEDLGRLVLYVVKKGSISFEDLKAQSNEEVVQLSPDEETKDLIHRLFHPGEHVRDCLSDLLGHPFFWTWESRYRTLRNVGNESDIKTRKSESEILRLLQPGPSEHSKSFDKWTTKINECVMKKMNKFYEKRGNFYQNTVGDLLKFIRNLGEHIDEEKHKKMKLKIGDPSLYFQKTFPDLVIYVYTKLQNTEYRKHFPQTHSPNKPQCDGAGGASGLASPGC

inhibition, inactive:
Nc1ncnc2c1ncn2[C@@H]1O[C@H](COP(=O)(O)CO[C@@H]2[C@@H](O)[C@@H](COP(=O)(O)CO[C@@H]3[C@@H](O)[C@@H](COP(=O)(O)O[C@@H]4[C@H](O)[C@@H](COP(=O)(O)O)O[C@H]4n4cnc5c(N)ncnc54)O[C@H]3n3cnc4c(N)ncnc43)O[C@H]2n2cnc3c(N)ncnc32)[C@@H](O)[C@H]1O, Nc1ncnc2c1ncn2[C@@H]1O[C@H](COCP(=O)(O)O[C@@H]2[C@@H](O)[C@@H](COCP(=O)(O)O[C@@H]3[C@@H](O)[C@@H](COCP(=O)(O)O[C@@H]4[C@@H](O)[C@@H](COCP(=O)(O)O)O[C@H]4n4cnc5c(N)ncnc54)O[C@H]3n3cnc4c(N)ncnc43)O[C@H]2n2cnc3c(N)ncnc32)[C@H](O)[C@H]1O, Nc1ncnc2c1ncn2[C@@H]1O[C@H](COP(=O)(O)O[C@@H]2[C@H](O)[C@@H](COP(=O)(O)O[C@@H]3[C@@H](O)[C@@H](COCP(=O)(O)O[C@@H]4[C@@H](O)[C@@H](COCP(=O)(O)O)O[C@H]4n4cnc5c(N)ncnc54)O[C@H]3n3cnc4c(N)ncnc43)O[C@H]2n2cnc3c(N)ncnc32)[C@@H](O)[C@H]1O, Nc1ncnc2c1ncn2[C@@H]1O[C@H](COCP(=O)(O)O[C@H]2[C@H](O)[C@@H](COCP(=O)(O)O[C@H]3[C@H](O)[C@@H](COCP(=O)(O)O[C@H]4[C@H](O)[C@@H](COCP(=O)(O)O)O[C@H]4n4cnc5c(N)ncnc54)O[C@H]3n3cnc4c(N)ncnc43)O[C@H]2n2cnc3c(N)ncnc32)[C@@H](O)[C@@H]1O, Nc1ncnc2c1ncn2[C@@H]1O[C@H](COCP(=O)(O)O[C@@H]2[C@H](O)[C@@H](COCP(=O)(O)O[C@@H]3[C@H](O)[C@@H](COCP(=O)(O)O[C@@H]4[C@H](O)[C@@H](COP(=O)(O)O)O[C@H]4n4cnc5c(N)ncnc54)O[C@H]3n3cnc4c(N)ncnc43)O[C@H]2n2cnc3c(N)ncnc32)[C@@H](O)[C@H]1O, Nc1ncnc2c1ncn2[C@@H]1O[C@H](COP(=O)(O)CO[C@H]2[C@H](O)[C@@H](COP(=O)(O)CO[C@H]3[C@H](O)[C@@H](COP(=O)(O)O[C@@H]4[C@H](O)[C@@H](COP(=O)(O)O)O[C@H]4n4cnc5c(N)ncnc54)O[C@H]3n3cnc4c(N)ncnc43)O[C@H]2n2cnc3c(N)ncnc32)[C@@H](O)[C@H]1O, Nc1ncnc2c1ncn2[C@@H]1O[C@H](COP(=O)(O)O[C@@H]2[C@@H](O)[C@@H](COCP(=O)(O)O[C@@H]3[C@H](O)[C@@H](COP(=O)(O)O[C@@H]4[C@@H](O)[C@@H](COCP(=O)(O)O)O[C@H]4n4cnc5c(N)ncnc54)O[C@H]3n3cnc4c(N)ncnc43)O[C@H]2n2cnc3c(N)ncnc32)[C@@H](O)[C@H]1O, Nc1ncnc2c1ncn2[C@@H]1O[C@H](COP(=O)(O)O[C@@H]2[C@@H](O)[C@@H](COCP(=O)(O)O[C@@H]3[C@@H](O)[C@@H](COCP(=O)(O)O[C@@H]4[C@@H](O)[C@@H](COCP(=O)(O)O)O[C@H]4n4cnc5c(N)ncnc54)O[C@H]3n3cnc4c(N)ncnc43)O[C@H]2n2cnc3c(N)ncnc32)[C@@H](O)[C@H]1O, Nc1ncnc2c1ncn2[C@@H]1O[C@H](COCP(=O)(O)O[C@@H]2[C@H](O)[C@@H](COP(=O)(O)O[C@H]3[C@H](O)[C@@H](COCP(=O)(O)O[C@@H]4[C@H](O)[C@@H](COP(=O)(O)O)O[C@H]4n4cnc5c(N)ncnc54)O[C@H]3n3cnc4c(N)ncnc43)O[C@H]2n2cnc3c(N)ncnc32)[C@@H](O)[C@@H]1O, Nc1ncnc2c1ncn2[C@@H]1O[C@H](COCP(=O)(O)O[C@@H]2[C@H](O)[C@@H](COP(=O)(O)O[C@H]3[C@H](O)[C@@H](COCP(=O)(O)O[C@H]4[C@H](O)[C@@H](COCP(=O)(O)O)O[C@H]4n4cnc5c(N)ncnc54)O[C@H]3n3cnc4c(N)ncnc43)O[C@H]2n2cnc3c(N)ncnc32)[C@@H](O)[C@@H]1O, Nc1ncnc2c1ncn2[C@@H]1O[C@H](COP(=O)(O)CO[C@H]2[C@H](O)[C@@H](COP(=O)(O)CO[C@H]3[C@H](O)[C@@H](COP(=O)(O)CO[C@H]4[C@H](O)[C@@H](COP(=O)(O)O)O[C@H]4n4cnc5c(N)ncnc54)O[C@H]3n3cnc4c(N)ncnc43)O[C@H]2n2cnc3c(N)ncnc32)[C@@H](O)[C@H]1O, Nc1ncnc2c1ncn2[C@@H]1O[C@H](COCP(=O)(O)O[C@@H]2[C@H](O)[C@@H](COP(=O)(O)O[C@@H]3[C@H](O)[C@@H](COP(=O)(O)O[C@H]4[C@H](O)[C@@H](COCP(=O)(O)O)O[C@H]4n4cnc5c(N)ncnc54)O[C@H]3n3cnc4c(N)ncnc43)O[C@H]2n2cnc3c(N)ncnc32)[C@@H](O)[C@@H]1O, Nc1ncnc2c1ncn2[C@@H]1O[C@H](COP(=O)(O)O[C@H]2[C@H](O)[C@@H](COCP(=O)(O)O[C@H]3[C@H](O)[C@@H](COCP(=O)(O)O[C@H]4[C@H](O)[C@@H](COCP(=O)(O)O)O[C@H]4n4cnc5c(N)ncnc54)O[C@H]3n3cnc4c(N)ncnc43)O[C@H]2n2cnc3c(N)ncnc32)[C@@H](O)[C@H]1O, Nc1ncnc2c1ncn2[C@@H]1O[C@H](COP(=O)(O)O[C@@H]2[C@H](O)[C@@H](COCP(=O)(O)O[C@@H]3[C@H](O)[C@@H](COCP(=O)(O)O[C@@H]4[C@H](O)[C@@H](COCP(=O)(O)O)O[C@H]4n4cnc5c(N)ncnc54)O[C@H]3n3cnc4c(N)ncnc43)O[C@H]2n2cnc3c(N)ncnc32)[C@@H](O)[C@H]1O, Nc1ncnc2c1ncn2[C@@H]1O[C@H](COP(=O)(O)O[C@H]2[C@H](O)[C@@H](COCP(=O)(O)O[C@@H]3[C@H](O)[C@@H](COP(=O)(O)O[C@H]4[C@H](O)[C@@H](COCP(=O)(O)O)O[C@H]4n4cnc5c(N)ncnc54)O[C@H]3n3cnc4c(N)ncnc43)O[C@H]2n2cnc3c(N)ncnc32)[C@@H](O)[C@H]1O, Nc1ncnc2c1ncn2[C@@H]1O[C@H](COP(=O)(O)CO[C@H]2[C@H](O)[C@@H](COP(=O)(O)O[C@@H]3[C@H](O)[C@@H](COP(=O)(O)CO[C@H]4[C@H](O)[C@@H](COP(=O)(O)O)O[C@H]4n4cnc5c(N)ncnc54)O[C@H]3n3cnc4c(N)ncnc43)O[C@H]2n2cnc3c(N)ncnc32)[C@@H](O)[C@H]1O, Nc1ncnc2c1ncn2[C@@H]1O[C@H](COP(=O)(O)CO[C@@H]2[C@H](O)[C@@H](COP(=O)(O)CO[C@@H]3[C@H](O)[C@@H](COP(=O)(O)CO[C@@H]4[C@H](O)[C@@H](COP(=O)(O)O)O[C@H]4n4cnc5c(N)ncnc54)O[C@H]3n3cnc4c(N)ncnc43)O[C@H]2n2cnc3c(N)ncnc32)[C@@H](O)[C@H]1O, Nc1ncnc2c1ncn2[C@@H]1O[C@H](COCP(=O)(O)O[C@H]2[C@H](O)[C@@H](COCP(=O)(O)O[C@@H]3[C@H](O)[C@@H](COP(=O)(O)O[C@@H]4[C@H](O)[C@@H](COP(=O)(O)O)O[C@H]4n4cnc5c(N)ncnc54)O[C@H]3n3cnc4c(N)ncnc43)O[C@H]2n2cnc3c(N)ncnc32)[C@@H](O)[C@@H]1O, Nc1ncnc2c1ncn2[C@@H]1O[C@H](COP(=O)(O)CO[C@@H]2[C@H](O)[C@@H](COP(=O)(O)CO[C@@H]3[C@H](O)[C@@H](COP(=O)(O)O[C@@H]4[C@H](O)[C@@H](COP(=O)(O)O)O[C@H]4n4cnc5c(N)ncnc54)O[C@H]3n3cnc4c(N)ncnc43)O[C@H]2n2cnc3c(N)ncnc32)[C@@H](O)[C@H]1O, Nc1ncnc2c1ncn2[C@@H]1O[C@H](COP(=O)(O)O[C@@H]2[C@H](O)[C@@H](COP(=O)(O)CO[C@H]3[C@H](O)[C@@H](COP(=O)(O)CO[C@H]4[C@H](O)[C@@H](COP(=O)(O)O)O[C@H]4n4cnc5c(N)ncnc54)O[C@H]3n3cnc4c(N)ncnc43)O[C@H]2n2cnc3c(N)ncnc32)[C@@H](O)[C@H]1O, Nc1ncnc2c1ncn2[C@@H]1O[C@H](COP(=O)(O)CO[C@@H]2[C@@H](O)[C@@H](COP(=O)(O)CO[C@@H]3[C@@H](O)[C@@H](COP(=O)(O)CO[C@@H]4[C@@H](O)[C@@H](COP(=O)(O)O)O[C@H]4n4cnc5c(N)ncnc54)O[C@H]3n3cnc4c(N)ncnc43)O[C@H]2n2cnc3c(N)ncnc32)[C@@H](O)[C@H]1O, Nc1ncnc2c1ncn2[C@@H]1O[C@H](COCP(=O)(O)O[C@@H]2[C@H](O)[C@@H](COP(=O)(O)O[C@@H]3[C@@H](O)[C@@H](COCP(=O)(O)O[C@@H]4[C@H](O)[C@@H](COP(=O)(O)O)O[C@H]4n4cnc5c(N)ncnc54)O[C@H]3n3cnc4c(N)ncnc43)O[C@H]2n2cnc3c(N)ncnc32)[C@H](O)[C@H]1O
